pIC50: −log10 of the molar value.
Tests used:
K562 [1] = assay: Cell cycle arrest in human K562 cells by accumulation at S phase at 30 nM after 24 hrs by flow cytometry; format: functional
FM3A = assay: Antiproliferative activity against mouse FM3A cells; format: functional, cell-based
CCRF-CEM = assay: Antiproliferative activity against human CEM cells; format: functional, cell-based
L1210 = assay: Antiproliferative activity against mouse L1210 cells; format: functional, cell-based
Bos taurus = species: Bos taurus; assay: Displacement of [3H]colchicine from bovine tubulin at 5 uM
K562 [2] = assay: Induction of apoptosis in human K562 cells after 48 hrs by fluorescence microscopy; format: functional, cell-based; settings: K562, 48 h
K562 [3] = assay: Cell cycle arrest in human K562 cells by accumulation at G2/M phase at 30 nM after 24 hrs by flow cytometry; format: functional
K562 [4] = assay: Cell cycle arrest in human K562 cells by accumulation at G0/G1 phase at 30 nM after 24 hrs by flow cytometry; format: functional
[5] = Antiproliferative activity against human Molt4/C8 cells; format: functional, cell-based; settings: MOLT-4
K562 [6] = assay: Cell cycle arrest in human K562 cells by accumulation at A phase at 30 nM after 24 hrs by flow cytometry; format: functional
[7] = Inhibition of bovine tubulin polymerization after 20 mins; parameters: species or system Bos taurus
K562 [8] = assay: Induction of apoptosis in human K562 cells at 60 nM after 48 hrs by fluorescence microscopy; format: functional
K562 [9] = assay: Cell cycle arrest in human K562 cells by accumulation at G0/G1 phase at 3 uM after 24 hrs by flow cytometry; format: functional
K562 [10] = assay: Cell cycle arrest in human K562 cells by accumulation at sub G0-G1 phase at 3 uM after 24 hrs by flow cytometry; format: functional
K562 [11] = assay: Cell cycle arrest in human K562 cells by accumulation at S phase at 3 uM after 24 hrs by flow cytometry; format: functional
K562 [12] = assay: Cell cycle arrest in human K562 cells by accumulation at G2/M phase at 3 uM after 24 hrs by flow cytometry; format: functional
K562 [13] = assay: Cell cycle arrest in human K562 cells by accumulation at S phase at 200 nM after 24 hrs by flow cytometry; format: functional
K562 [14] = assay: Cell cycle arrest in human K562 cells by accumulation at G0/G1 phase at 200 nM after 24 hrs by flow cytometry; format: functional
K562 [15] = assay: Cell cycle arrest in human K562 cells by accumulation at A phase at 200 nM after 24 hrs by flow cytometry; format: functional
K562 [16] = assay: Cell cycle arrest in human K562 cells by accumulation at G2/M phase at 200 nM after 24 hrs by flow cytometry; format: functional

pIC50 (CCRF-CEM) | pIC50 (L1210) | pIC50 [7] | SMILES | pIC50 (FM3A) | pIC50 [5] | further results
8.06 | 7.82 | 5.85 | COc1cc(C(=O)c2c(N)c3cccc(OC)c3n2C)cc(OC)c1OC | 7.82 | 8.42 | Activity (K562 [1]): 28%; inhibition (Bos taurus): 76%; AC50 (K562 [2]): 0.03 µM; Activity (K562 [3]): 45%; Activity (K562 [4]): 27%; Activity (K562 [6]): 24%; Activity (K562 [8]): 100%
< 5.00 | < 5.00 |  | COc1cc(C(=O)c2[nH]c3ccc(C)cc3c2N)cc(OC)c1OC | < 5.00 | < 5.00 | 
5.77 | 5.72 | 5.00 | COc1cc(C(=O)c2c(N)c3cc(C)ccc3n2C)cc(OC)c1OC | 5.80 | 5.77 | 
5.92 | 5.74 | 5.08 | COc1cc(C(=O)c2c(N)c3cccc(C)c3n2C)cc(OC)c1OC | 5.85 | 6.57 | 
6.20 | < 5.00 |  | COc1cc(C(=O)c2[nH]c3c(OC)cccc3c2N)cc(OC)c1OC | < 5.00 | 6.19 | 
< 5.00 | < 5.00 |  | COc1cc(C(=O)c2[nH]c3c(C)cccc3c2N)cc(OC)c1OC | < 5.00 | < 5.00 | 
6.40 | 5.72 | 5.19 | COc1cc(C(=O)c2c(N)c3ccc(C)cc3n2C)cc(OC)c1OC | 5.82 | 6.96 | 
 |  |  | COc1ccc(/C=C\c2cc(OC)c(OC)c(OC)c2)cc1O [COMBRETASTATIN A4] |  | 8.80 | 
< 5.00 | < 5.00 |  | CCn1c(C(=O)c2cc(OC)c(OC)c(OC)c2)c(N)c2ccc(OC)cc21 | < 5.00 | < 5.00 | 
5.59 | 5.46 |  | COc1cc(C(=O)c2[nH]c3cc(C)ccc3c2N)cc(OC)c1OC | < 5.00 | 5.85 | 
6.49 | 6.01 | < 4.40 | COc1ccc2c(N)c(C(=O)c3cc(OC)c(OC)c(OC)c3)[nH]c2c1 | 5.80 | 6.20 | Activity (K562 [9]): 15%; Activity (K562 [10]): 25%; Activity (K562 [11]): 35%; Activity (K562 [12]): 50%; AC50 (K562 [2]): 3 µM
< 5.00 | < 5.00 |  | COc1cc(C(=O)c2[nH]c3cccc(OC)c3c2N)cc(OC)c1OC | < 5.00 | < 5.00 | 
5.30 | 5.27 | 4.74 | COc1cc2c(N)c(C(=O)c3cc(OC)c(OC)c(OC)c3)n(C)c2cc1OC | 5.30 | 5.30 | 
< 5.00 | < 5.00 |  | COc1cc(C(=O)c2[nH]c3ccc(Cl)cc3c2N)cc(OC)c1OC | < 5.00 | < 5.00 | 
5.41 | 5.38 | 4.82 | COc1ccc2c(c1)c(N)c(C(=O)c1cc(OC)c(OC)c(OC)c1)n2C | 5.28 | 5.68 | 
< 5.00 | < 5.00 |  | CCn1c(C(=O)c2cc(OC)c(OC)c(OC)c2)c(N)c2ccccc21 | < 5.00 | < 5.00 | 
< 5.00 | < 5.00 |  | CCn1c(C(=O)c2cc(OC)c(OC)c(OC)c2)c(N)c2cccc(OC)c21 | < 5.00 | 5.04 | 
5.17 | 5.09 |  | COc1cc(C(=O)c2c(N)c3ccccc3n2C)cc(OC)c1OC | < 5.00 | 5.68 | 
5.02 | < 5.00 |  | COc1cc2[nH]c(C(=O)c3cc(OC)c(OC)c(OC)c3)c(N)c2cc1OC | < 5.00 | 5.07 | 
< 5.00 | < 5.00 |  | COc1cc(C(=O)c2[nH]c3cc(Cl)ccc3c2N)cc(OC)c1OC | < 5.00 | 5.04 | 
6.00 | 5.96 | 5.15 | COc1cc(C(=O)c2c(N)c3ccc(Cl)cc3n2C)cc(OC)c1OC | 6.01 | 6.32 | 
< 5.00 | < 5.00 |  | COc1cc(C(=O)c2[nH]c3cccc(C)c3c2N)cc(OC)c1OC | < 5.00 | < 5.00 | 
5.07 | 5.01 |  | COc1ccc2[nH]c(C(=O)c3cc(OC)c(OC)c(OC)c3)c(N)c2c1 | 5.00 | 5.16 | 
< 5.00 | < 5.00 |  | COc1cc(C(=O)c2c(N)c3c(C)cccc3n2C)cc(OC)c1OC | < 5.00 | < 5.00 | 
< 5.00 | < 5.00 |  | COc1cc(C(=O)c2[nH]c3ccccc3c2N)cc(OC)c1OC | < 5.00 | < 5.00 | 
7.15 | 7.16 | 5.34 | COc1ccc2c(N)c(C(=O)c3cc(OC)c(OC)c(OC)c3)n(C)c2c1 | 7.01 | 7.24 | Activity (K562 [13]): 33%; Activity (K562 [14]): 15%; Activity (K562 [15]): 23%; inhibition (Bos taurus): 38%; AC50 (K562 [2]): 0.15 µM; Activity (K562 [16]): 52%
8.44 | 8.46 | 5.54 | COc1ccc2c(C(=O)c3cc(OC)c(OC)c(OC)c3)c[nH]c2c1 | 8.43 | 8.47 | inhibition (Bos taurus): 84%
< 5.00 | < 5.00 |  | COc1cc(C(=O)c2c(N)c3c(OC)cccc3n2C)cc(OC)c1OC | < 5.00 | < 5.00 | 

SMILES | pIC50 (CCRF-CEM) | pIC50 (L1210) | pIC50 [7] | pIC50 (FM3A) | pIC50 [5] | further results
COc1cc(C(=O)c2sc3c(OC)cccc3c2N)cc(OC)c1OC | 8.05 | 7.48 | 5.68 | 7.57 | 8.07 | inhibition (Bos taurus): 39%
